Values of other authors as cited in patent publication US10519176B2, “Crystalline forms” (GRUNENTHAL GMBH, priority 2010, dated 2019).

What was measured:
[1] = according to FDA SBA
[2] = according to FDA SBA; remark: listed apart in the source
[3] = in vivo

## O=P(O)(O)C(O)(Cn1ccnc1)P(=O)(O)O [Zoledronic acid, (1-hydroxy-2-imidazol-1-yl-1-phosphono-ethyl)phosphonic acid]
0.1 N HCl solution
  solubility in 0.1 N HCl solution: sparingly soluble
0.1 N NaOH
  solubility in 0.1 N NaOH: freely soluble
Various organic solvents
  solubility in various organic solvents: practically insoluble
water
  solubility in water: sparingly soluble
[1]
  oral bioavailability: approximately 1%
[2]
  permeability in the GI tract: poor permeability
[3]
  gastric and intestinal irritations: severe gastric and intestinal irritations
